Test results taken from article PMC10120512, “Benzenesulfonamide derivatives as Vibrio cholerae carbonic anhydrases inhibitors: a computational-aided insight in the structural rigidity-activity relationships” (Journal of Enzyme Inhibition and Medicinal Chemistry, 2023).

Tests used:
VchαCA [1] = assay: biochemical; assay type: biochemical; settings: for SI [ KI hCA I/KI VchαCA ]: selectivity index hCA I over VchαCA; for SI [ KI hCA II/KI VchαCA ]: selectivity index hCA II over VchαCA
VchαCA [2] = target: VchαCA (Vibrio cholerae, UniProt Q9KMP6); assay: biochemical; assay type: biochemical
Sequence of VchαCA (Vibrio cholerae, UniProt Q9KMP6) (Q9KMP6 entry or part of it): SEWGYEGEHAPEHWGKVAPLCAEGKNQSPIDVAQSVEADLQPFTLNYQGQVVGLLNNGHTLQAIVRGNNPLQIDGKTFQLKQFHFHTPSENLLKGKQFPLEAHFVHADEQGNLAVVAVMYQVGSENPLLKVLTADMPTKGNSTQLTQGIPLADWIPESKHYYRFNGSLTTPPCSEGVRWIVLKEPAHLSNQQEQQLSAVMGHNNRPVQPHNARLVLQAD

VchγCA = VchγCA (Vibrio cholerae, UniProt Q9KVT1); assay: biochemical
Sequence of VchγCA (Q9KVT1 1-184): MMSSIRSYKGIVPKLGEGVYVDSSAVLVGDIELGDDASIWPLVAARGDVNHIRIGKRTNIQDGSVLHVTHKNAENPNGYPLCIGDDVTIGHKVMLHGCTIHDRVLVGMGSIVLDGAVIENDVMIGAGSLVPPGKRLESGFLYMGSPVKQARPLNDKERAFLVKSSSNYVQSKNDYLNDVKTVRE

VchβCA = VchβCA (Vibrio cholerae, UniProt A0A086SLX8); assay: biochemical
Sequence of VchβCA (A0A086SLX8 entry or part of it): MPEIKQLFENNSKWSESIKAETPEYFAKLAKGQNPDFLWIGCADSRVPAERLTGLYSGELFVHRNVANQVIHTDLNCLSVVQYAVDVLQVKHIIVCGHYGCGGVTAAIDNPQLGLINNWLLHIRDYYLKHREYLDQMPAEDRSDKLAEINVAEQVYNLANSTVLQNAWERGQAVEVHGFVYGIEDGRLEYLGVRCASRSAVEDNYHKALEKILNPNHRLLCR

[3] = system: clinical isolates of V. cholerae (SI-Vc22, SI-Vc71, SI-Vc912); assay: Direct antibacterial activity, agar diffusion method; assay type: cell-based; settings: for inhibition zone diameter: all the isolates, data not shown; for growth inhibition against at least one of the clinical isolates: 2 μL spot, 37 °C, 24 h; on all read-outs here: test concentration or dose not given here

Row | Compound | SI [ KI hCA I/KI VchαCA ] (VchαCA [1]) | SI [ KI hCA II/KI VchαCA ] (VchαCA [1]) | Ki (VchαCA [2]) | Ki (VchγCA) | Ki (VchβCA) | inhibition zone diameter [3] | growth inhibition against at least one of the clinical isolates [3]
1 | Cc1ccc(N2CCN(c3ccc(S(N)(=O)=O)cc3)C2=O)cc1 [2c] | 0.60 | 0.14 | 0.027 µM | 3.5 µM | 83.6 µM |  | 
2 | NS(=O)(=O)c1ccc(NC(=O)CNc2ccccc2)cc1 [1b] | 1.2 | 0.1 | 0.053 µM | 49.4 µM | 17.7 µM |  | 
3 | Cc1ccc(NCC(=O)Nc2cccc(S(N)(=O)=O)c2)cc1 [12b] | 1.2 | 0.1 | 0.0731 µM | 9.6 µM | 121 µM |  | 
4 | NS(=O)(=O)c1ccc(N2CCN(c3ccc(Cl)cc3)C2=O)cc1 [3c] | 4.1 | 1.0 | 0.047 µM | 50.2 µM | 106 µM |  | 
5 | CC(C)NCC(=O)Nc1ccc(S(N)(=O)=O)cc1 [10b] | 2.5 | 0.7 | 0.0362 µM | 58.3 µM | 4 µM |  | 
6 | NS(=O)(=O)c1cccc(NC(=O)CNc2ccc(Cl)cc2)c1 [13b] | 3.6 | 0.4 | 0.0755 µM |  | 70.4 µM |  | 
7 | NS(=O)(=O)c1ccc(NCCNc2ccccc2)cc1 [1a] | 0.3 | 0.1 | 0.0781 µM |  | 18.3 µM |  | 
8 | NS(=O)(=O)c1ccc(NCCNc2ccc(I)cc2)cc1 [4a] | 12.1 | 9.9 | 0.065 µM |  | 136 µM |  | 
9 | NS(=O)(=O)c1ccc(N2CCN(c3ccccc3F)C2=O)cc1 [6c] |  |  | 0.0097 µM | 82.8 µM |  | 3–5 mm | 
10 | NS(=O)(=O)c1cccc(NC(=O)CNc2ccccc2Br)c1 [14b] | 0.3 |  | 0.0723 µM | 72.4 µM | 16 µM |  | 
11 | NS(=O)(=O)c1cccc(NCCNc2ccc(Cl)cc2)c1 [13a] | 4.6 | 0.2 | 0.0756 µM | 5.6 µM | 59.2 µM |  | moderate growth inhibition
12 | NS(=O)(=O)c1cccc(NCCNc2ccccc2)c1 [11a] | 0.1 | 0.1 | 0.063 µM |  | 15.6 µM | 3–5 mm | moderate growth inhibition
13 | Cc1ccc(N2CCN(c3cccc(S(N)(=O)=O)c3)C2=O)cc1 [12c] |  |  | 0.011 µM | 76 µM |  |  | 
14 | Cc1cccc(NCC(=O)Nc2ccc(S(N)(=O)=O)cc2)n1 [7b] | 0.9 | 0.3 | 0.017 µM | 59.8 µM | 73.1 µM |  | 
15 | NS(=O)(=O)c1cccc(NCCNc2ccccc2Br)c1 [14a] | 0.1 | 0.1 | 0.0635 µM |  | 97 µM |  | 
16 | NS(=O)(=O)c1cccc(N2CCN(c3ccc(Cl)cc3)C2=O)c1 [13c] | 7.6 | 21.0 | 0.004 µM | 73.7 µM | 122 µM |  | 
17 | Cc1ccc(NCCNc2ccc(S(N)(=O)=O)cc2)cc1 [2a] | 0.2 | 0.1 | 0.0431 µM | 39.9 µM | 16.8 µM |  | 
18 | CC(C)NCCNc1ccc(S(N)(=O)=O)cc1 [10a] | 119.5 | 45.0 | 0.0075 µM | 92.9 µM | 12.5 µM |  | 
19 | Cc1cccc(NCCNc2ccc(S(N)(=O)=O)cc2)n1 [7a] | 2.4 | 0.9 | 0.037 µM | 69.8 µM | 19 µM |  | 
20 | CCCCNCC(=O)Nc1ccc(S(N)(=O)=O)cc1 [9b] |  |  | 0.0786 µM |  | 141 µM |  | moderate growth inhibition
21 | NS(=O)(=O)c1cccc(N2CCN(c3ccccc3Br)C2=O)c1 [14c] | 0.8 | 5.4 | 0.01 µM | 81.3 µM | 132 µM |  | 
22 | NS(=O)(=O)c1ccc(NCCNc2ccccc2F)cc1 [6a] | 2.1 | 0.2 | 0.0362 µM | 73.7 µM | 101 µM |  | 
23 | NS(=O)(=O)c1cccc(N2CCN(c3ccccc3)C2=O)c1 [11c] | 1.2 | 0.6 | 0.0503 µM | 6.5 µM | 100 µM |  | 
